The text below walks through data of patent US20240407371A1, “METHOD FOR THE KILLING, INACTIVATING, OR INHIBITING OF HARMFUL BLUE-GREEN ALGAE OR ALGAE CAPABLE OF CAUSING HARMFUL ALGAL BLOOM (HAB)” (priority 2021, published 2024).

Each structure is given as a SMILES string.

In the assay the test system is Saprolegnia diclina. The experiment in a line: Atlantic salmon eggs challenged with Saprolegnia diclina trojan eggs, immersion baths. It counts as in vivo, Atlantic salmon (Salmo solar L.) eggs. The following applies: 1665 ppm, 15 min bath daily.

With `C=O` [Formalin], the signs of saprolegniosis entry is on record as “did not suffer any sign of saprolegniosis”. Under “Treatment E, 10 days”, the “Average Number of Eggs Entangled” value turned out to be 0.00 and the “Average Percent Eggs Entangled” value is on record as 0.00.
